The values below come from publication PMC4793304 (Bioscience Reports, 2016).

Data set [1] deals with T1, mouse Pgp transporter (Mus musculus, UniProt P21447).
Data set [2] has as its target T1, mouse Pgp transporter. This is another data set of the same source.
Excerpt: (§1) Because of the complexity of the model shown in Figure 6A, the kinetics curves in Figures 6B and 6C were fit using the COPASI software package.
Data set [3] has as its target T1, mouse Pgp transporter. The source holds these as a separate data set.
Excerpt: (§2) Drug-induced quenching of protein fluorescence with Pgp reconstituted in liposomes was investigated on an Olis DM 45 spectrofluorimeter (Olis Corp). […] Drug-induced fluorescence quenching was corrected (Fcorrected) for background fluorescence, dilution and inner filter effects with eqn (3) [57]:
3 Fcorrected=F−B10^ɛexbex+ɛembemQ/2
(§3) where F is the measured protein fluorescence, B is the background and [Q] is the quenching ligand concentration. The molar absorption coefficients (ε) for excitation and emission are εex and εem respectively. […] The pathlength (b) along the excitation and emission axes are bex and bem respectively. Drug-induced quenching of protein fluorescence from complexation of the ligand to the protein is known as static quenching, and can be used to estimate the drug's affinity. Drug-induced fluorescence quenching from random collisions with the protein is known as dynamic quenching [57]. Regardless of the nature of the quenching, the fluorescence quenching curves were fit to eqn (4) [57]:
4 Fcorrected=Fcorrected,0/1+KQ
(§4) where Fcorrected,0 is the protein fluorescence in the absence of a quenching ligand and K is the association constant (KA) or the Stern–Volmer quenching constant (KSV) in the case of a static and dynamic quenching processes respectively.
The target of data set [4] is T1, mouse Pgp transporter. Particulars: 250 μM digoxin.
Description: Control acrylamide titrations were performed in the presence of N-acetyl-L-tryptophanamide (NATA) to estimate the degree of non-specific quenching [55]. Fluorescence intensities were corrected for with eqn (3) [57]. To produce the Stern–Volmer plots, the Fcorrected,0/Fcorrected was plotted as a function of the acrylamide concentration. The degree of dynamic tryptophan quenching was estimated from the slopes of the Stern–Volmer curves, which is related to KSV by Fcorrected,0/Fcorrected = 1 + KSV[Q]
In data set [5] the target is T1, mouse Pgp transporter. The conditions noted are these: proton near the 1,4 β-linkage; 250 μM digoxin, 1 μM Pgp.
Description: The STDD NMR procedure for membrane proteins was performed as described in [68]. […] The STDD NMR experiments were performed with a double pulsed field gradient spin echo pulse sequence to suppress background water, a 2s train of 50 ms shaped saturation pulses to selectively excite the protein and a total relaxation delay of 5 s [63]. […] Control experiments were performed under identical conditions with liposomes and the drugs. To produce the STDD NMR spectrum, ^1H STD NMR spectrum of liposomes with drugs was subtracted from the ^1H STD NMR spectrum of Pgp reconstituted in liposomes with drugs (ΔI). […] The STDD amplification factor was calculated using the following equation based on the STD amplification factor (eqn 5) [63]:
5 STDDamplificationfactor=L/PΔI/I0
where [P] is the protein concentration and I0 is the amplitude of the ^1H NMR peaks in the absence of saturating pulses.
In data set [6] the test system is human Pgp from Caco-2 cells. Particulars: read-out: Km for digoxin transport; cited from earlier work.
Data set [7] has as its system human Pgp. The conditions noted are these: read-out: Km for ATPase activation; Caco-2 membrane vesicles containing human Pgp; cited from earlier work.
The test system of data set [8] is human Pgp. The conditions noted are these: read-out: Km for ATPase activation; human Pgp-enriched insect cell membranes; cited from earlier work.
The test system of another data set is Pgp. The conditions noted are these: read-out: Km for ATPase activation (implied); CR1R12 cells; maximal activation not reached at 1000 μM digoxin; cited from earlier work.
Data set [9] addresses T1, mouse Pgp transporter. Description: biochemical.
Excerpt: as §1
Data set [10] concerns the target T1, mouse Pgp transporter. Description: biochemical. The source holds these as a separate data set.
Excerpt: as §2
3 Fcorrected=F−B10^ɛexbex+ɛembemQ/2
as §3
4 Fcorrected=Fcorrected,0/1+KQ
as §4

Where two headings read alike, the source gives them in different places.

T1 sequence (P21447 whole entry): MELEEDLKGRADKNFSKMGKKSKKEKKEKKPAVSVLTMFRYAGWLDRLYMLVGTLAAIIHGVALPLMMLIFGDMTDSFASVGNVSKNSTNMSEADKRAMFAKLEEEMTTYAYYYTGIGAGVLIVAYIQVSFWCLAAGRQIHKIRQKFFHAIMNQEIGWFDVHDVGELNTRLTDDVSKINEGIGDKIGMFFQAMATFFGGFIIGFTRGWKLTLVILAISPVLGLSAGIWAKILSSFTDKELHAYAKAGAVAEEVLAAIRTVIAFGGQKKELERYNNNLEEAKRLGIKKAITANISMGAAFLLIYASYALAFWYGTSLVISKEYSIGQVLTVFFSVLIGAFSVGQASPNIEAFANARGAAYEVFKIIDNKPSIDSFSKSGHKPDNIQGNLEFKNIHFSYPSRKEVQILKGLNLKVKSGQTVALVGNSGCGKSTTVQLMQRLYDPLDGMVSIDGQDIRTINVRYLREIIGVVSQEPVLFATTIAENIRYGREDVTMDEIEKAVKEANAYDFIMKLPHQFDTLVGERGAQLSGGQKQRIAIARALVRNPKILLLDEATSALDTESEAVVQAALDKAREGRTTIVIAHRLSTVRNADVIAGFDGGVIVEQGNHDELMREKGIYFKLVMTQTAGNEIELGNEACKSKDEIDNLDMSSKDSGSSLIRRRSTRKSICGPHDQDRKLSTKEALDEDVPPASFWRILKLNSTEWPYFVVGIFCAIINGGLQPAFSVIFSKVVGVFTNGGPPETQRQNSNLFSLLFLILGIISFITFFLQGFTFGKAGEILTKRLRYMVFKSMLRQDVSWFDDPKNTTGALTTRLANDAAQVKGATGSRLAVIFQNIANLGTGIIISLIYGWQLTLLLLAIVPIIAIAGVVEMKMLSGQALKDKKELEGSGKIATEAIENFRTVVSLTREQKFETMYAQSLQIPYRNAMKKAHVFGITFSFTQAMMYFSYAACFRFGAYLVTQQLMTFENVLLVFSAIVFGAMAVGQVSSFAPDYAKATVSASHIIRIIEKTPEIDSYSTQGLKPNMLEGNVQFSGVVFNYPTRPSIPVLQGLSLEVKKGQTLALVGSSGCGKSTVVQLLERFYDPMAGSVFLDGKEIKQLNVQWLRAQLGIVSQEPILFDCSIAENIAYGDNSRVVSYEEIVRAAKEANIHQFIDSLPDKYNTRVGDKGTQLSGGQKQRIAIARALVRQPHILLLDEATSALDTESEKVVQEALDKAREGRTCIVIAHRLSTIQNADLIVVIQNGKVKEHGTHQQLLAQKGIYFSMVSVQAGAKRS

As to `C[C@H]1O[C@@H](O[C@H]2[C@@H](O)C[C@H](O[C@H]3[C@@H](O)C[C@H](O[C@H]4CC[C@@]5(C)[C@H](CC[C@@H]6[C@@H]5C[C@@H](O)[C@]5(C)[C@@H](C7=CC(=O)OC7)CC[C@]65O)C4)O[C@@H]3C)O[C@@H]2C)C[C@H](O)[C@@H]1O` [digoxin], at mouse Pgp transporter [1] (50 nM Pgp in liposomes, verapamil maximum at 8 μM), the “maximum Pgp-coupled ATPase activity reached” value is about 1300 nmol/min/mg. In addition, the “fold activation of ATPase at maximum” value on mouse Pgp transporter [1] (relative to basal activity, verapamil at 8 μM) is given as about 2 fold. Further, the “VMAX of drug-induced ATP hydrolysis” value on mouse Pgp transporter [1] (verapamil fit to substrate inhibition eqn 2, digoxin fit to Michaelis-Menten eqn 1) was 1344 ± 149.8 nmol/min/mg. For the same molecule, at mouse Pgp transporter [2] (average from fitting all curves), the “average VMAX3” value turned out to be 1981 ± 207 nmol/min/mg. Besides, on mouse Pgp transporter [2] (both drugs bound, estimated by fitting with COPASI), the “VMAX4,5, ATPase activation from simultaneous binding of digoxin and verapamil” value was 121 ± 139 nmol/min/mg. Also, the “VMAX3 (digoxin, DDI model)” value on mouse Pgp transporter [2] (in the absence of verapamil) is 1983 nmol/min/mg. In addition, the “K from fluorescence quenching” value on mouse Pgp transporter [3] (37°C, no verapamil) was 0.0030 ± 0.0008 µM⁻¹. Also, the “quenching of Pgp fluorescence at saturating digoxin” value on mouse Pgp transporter [3] (excitation 280 nm, emission 333 nm, 25°C) is on record as about 10%. Also, the “KSV (acrylamide Stern-Volmer slope of Pgp)” value at mouse Pgp transporter [4] is 2.29 ± 0.12 M⁻¹. Also, the “highest STDD amplification factor” value at mouse Pgp transporter [5] is about 8. The Km – broadly, the substrate concentration at which the rate is half of its maximum – in [6] is 385 µM; in the data set with human Pgp [7], 1.2 µM; in the data set on human Pgp [8], 83.7 µM; in the data set with Pgp, over 500 µM. Moreover, the Kd (usually the equilibrium constant for the complex coming apart) is 239 µM at mouse Pgp transporter [9] (KD3 (digoxin, DDI model), in the absence of verapamil); 292 ± 89 µM at mouse Pgp transporter [9] (KD4, affinity of digoxin to Pgp in the presence of verapamil, estimated indirectly by fitting with COPASI); 206 ± 53 µM on mouse Pgp transporter [9] (average KD3, average from fitting all curves); 100 ± 18 µM at mouse Pgp transporter [10].
